Reference: patent publication US8163740B2, “6-substituted benzoxazines” (Hoffmann-La Roche Inc., priority 2008, dated 2012)

target: recombinant human 5-HT5A receptor (Homo sapiens, UniProt P47898); assay: [3H]LSD radioligand binding assay; conditions: [3H]LSD (approximately 1 nM); membranes from HEK-EBNA cells transiently expressing 5-HT5A; Ki by Cheng-Prussoff equation; read-out: Ki
How it was run: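 Membranes from HEK-EBNA cells transiently expressing the receptor, with ~1 nM [3H]LSD in 50 mM Tris, 1 mM EGTA, 10 mM MgCl2, 10 μM pargyline, pH 7.4, SPA bead format. Incubated 120 min RT; nonspecific binding defined with 2 μM methiothepin. 10 concentrations in duplicate; IC50 converted to Ki via Cheng-Prusoff.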

Sequence of recombinant human 5-HT5A receptor (P47898 whole entry): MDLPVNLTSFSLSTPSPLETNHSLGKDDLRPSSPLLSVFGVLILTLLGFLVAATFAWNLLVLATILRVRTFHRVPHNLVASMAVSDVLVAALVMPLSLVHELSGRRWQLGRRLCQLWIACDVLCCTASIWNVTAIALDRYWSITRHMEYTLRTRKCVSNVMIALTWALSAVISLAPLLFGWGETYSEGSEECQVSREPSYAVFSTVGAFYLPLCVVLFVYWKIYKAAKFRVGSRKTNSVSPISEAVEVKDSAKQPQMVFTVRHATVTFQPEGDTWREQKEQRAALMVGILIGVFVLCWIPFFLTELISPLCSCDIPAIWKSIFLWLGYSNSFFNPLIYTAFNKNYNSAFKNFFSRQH

Ki [nM] | SMILES
16 | O=C(CN1CCS(=O)(=O)CC1)Nc1ccc2c(c1)COC(N[C@@H]1CCc3ccccc31)=N2 [Example 66, 2-(1,1-Dioxo-1λ^6-thiomorpholin-4-yl)-N-[2-((R)-indan-1-ylamino)-4H-benzo[d][1,3]oxazin-6-yl]-acetamide]
13 | O=C(CN1CCOCC1)Nc1ccc2c(c1)COC(NC1CCc3cc(F)ccc31)=N2 (racemic) [Example 56, rac-N-[2-(5-Fluoro-indan-1-ylamino)-4H-benzo[d][1,3]oxazin-6-yl]-2-morpholin-4-yl-acetamide]
1.36 | O=C(Nc1ccc2c(c1)COC(NC1CCc3cc(F)ccc31)=N2)C1CC1 (racemic) [Example 20, rac-Cyclopropanecarboxylic acid [2-(5-fluoro-indan-1-ylamino)-4H-benzo[d][1,3]oxazin-6-yl]-amide]
1.84 | CN1CCN(CC(=O)Nc2ccc3c(c2)COC(N[C@@H]2CCc4ccccc42)=N3)CC1 [Example 3, N-[2-((R)-Indan-1-ylamino)-4H-benzo[d][1,3]oxazin-6-yl]-2-(4-methyl-piperazin-1-yl)-acetamide]
7.42 | O=C(Cn1ccnc1)Nc1ccc2c(c1)COC(N[C@@H]1CCc3ccccc31)=N2 [Example 67, 2-Imidazol-1-yl-N-[2-((R)-indan-1-ylamino)-4H-benzo[d][1,3]oxazin-6-yl]-acetamide]
43.6 | Fc1ccc2c(c1)CCC2NC1=Nc2ccc(Br)cc2CO1 (racemic) [Example 53, rac-(6-Bromo-4H-benzo[d][1,3]oxazin-2-yl)-(5-fluoro-indan-1-yl)-amine]
4.08 | CN(C)S(=O)(=O)Nc1ccc2c(c1)COC(NC1CCc3cc(F)ccc31)=N2 (racemic) [Example 64, rac-N,N-(Dimethyl)-N′-{2-(5-Fluoro-indan-1-ylamino)-4H-benzo[d][1,3]oxazin-6-yl}-sulfamide]
40.6 | COc1cccc2c1C(NC1=Nc3ccc(NC(=O)CN4CCOCC4)cc3CO1)CO2 (racemic) [Example 13, rac-N-[2-(4-Methoxy-2,3-dihydro-benzofuran-3-ylamino)-4H-benzo[d][1,3]oxazin-6-yl]-2-morpholin-4-yl-acetamide]
22.8 | O=C(CN1CCOCC1)Nc1ccc2c(c1)COC(N[C@@H]1CCCc3ccccc31)=N2 [Example 39, 2-Morpholin-4-yl-N-{2-[(R)-(1,2,3,4-tetrahydro-naphthalen-1-yl)amino]-4H-benzo[d][1,3]oxazin-6-yl}-acetamide]

The next lines start with the molecule.

SMILES | Ki [nM]
CC(C)(O)CNCC(=O)Nc1ccc2c(c1)COC(NC1COc3cc(F)ccc31)=N2 (racemic) [Example 43, rac-N-[2-(6-Fluoro-2,3-dihydro-benzofuran-3-ylamino)-4H-benzo[d][1,3]oxazin-6-yl]-2-(2-hydroxy-2-methyl-propylamino)-acetamide] | 50.3
Nc1ccc2c(c1)COC(Nc1cccc(C3CC3)c1)=N2 [Example 119, N^2-(3-Cyclopropyl-phenyl)-4H-benzo[d][1,3]oxazine-2,6-diamine] | 37.8
COCCNCC(=O)Nc1ccc2c(c1)COC(N[C@@H]1CCc3ccccc31)=N2 [Example 69, N-[2-((R)-Indan-1-ylamino)-4H-benzo[d][1,3]oxazin-6-yl]-2-(2-methoxy-ethylamino)-acetamide] | 8.34
CC(C)N1C2CCC1CC(NCC(=O)Nc1ccc3c(c1)COC(N[C@@H]1CCc4ccccc41)=N3)C2 (stereo partly drawn) [Example 76, N-[2-((R)-Indan-1-ylamino)-4H-benzo[d][1,3]oxazin-6-yl]-2-((exo)-8-isopropyl-8-aza-bicyclo[3.2.1]oct-3-ylamino)-acetamide] | 13.5
CN(C)S(=O)(=O)Nc1ccc2c(c1)COC(NCCOc1ccccc1)=N2 [Example 110, N,N-(Dimethyl)-N′-{2-(2-Phenoxy-ethylamino)-4H-benzo[d][1,3]oxazin-6-yl}-sulfamide] | 24.1
CC(C)N1CCC(NC(=O)Nc2ccc3c(c2)COC(NC2CCCCCC2)=N3)CC1 [Example 124, 1-(2-Cycloheptylamino-4H-benzo[d][1,3]oxazin-6-yl)-3-(1-isopropyl-piperidin-4-yl)-urea] | 3.32
COc1cccc2c1C(NC1=Nc3ccc(N)cc3CO1)CCC2 (racemic) [Example 22, rac-N^2-(8-Methoxy-1,2,3,4-tetrahydro-naphthalen-1-yl)-4H-benzo[d][1,3]oxazine-2,6-diamine] | 7.72
CC(=O)Nc1ccc2c(c1)COC(N[C@@H]1CCc3ccccc31)=N2 [Example 48, N-[2-((R)-Indan-1-ylamino)-4H-benzo[d][1,3]oxazin-6-yl]-acetamide] | 3.63
O=S(=O)(Nc1ccc2c(c1)COC(N[C@@H]1CCc3ccccc31)=N2)c1ccccc1 [Example 83, N-[2-((R)-Indan-1-ylamino)-4H-benzo[d][1,3]oxazin-6-yl]-benzenesulfonamide] | 3.69
c1cc(NC2=Nc3ccc(NCc4nccs4)cc3CO2)cc(C2CC2)c1 [Example 127, N^2-(3-Cyclopropyl-phenyl)-N^6-thiazol-2-ylmethyl-4H-benzo[d][1,3]oxazine-2,6-diamine] | 37.9
COc1cccc2c1C(NC1=Nc3ccc(NC(=O)CN4CCN(C(C)C)CC4)cc3CO1)CO2 (racemic) [Example 12, rac-2-(4-Isopropyl-piperazin-1-yl)-N-[2-(4-methoxy-2,3-dihydro-benzofuran-3-ylamino)-4H-benzo[d][1,3]oxazin-6-yl]-acetamide] | 9.28
O=S(=O)(Nc1ccc2c(c1)COC(NCCOc1ccccc1)=N2)c1ccccc1 [Example 109, N-[2-(2-Phenoxy-ethylamino)-4H-benzo[d][1,3]oxazin-6-yl]-benzenesulfonamide] | 32.3
CC(C)NC(=O)Nc1ccc2c(c1)COC(NC1CCCCCC1)=N2 [Example 154, 1-(2-Cycloheptylamino-4H-benzo[d][1,3]oxazin-6-yl)-3-isopropyl-urea] | 1.86
COc1cccc2c1C(NC1=Nc3ccc(NC(=O)CCl)cc3CO1)CO2 (racemic) [Example 8, rac-2-Chloro-N-[2-(4-methoxy-2,3-dihydro-benzofuran-3-ylamino)-4H-benzo[d][1,3]oxazin-6-yl]-acetamide] | 20.7
CN1CCN(CC(=O)Nc2ccc3c(c2)COC(NC2CCCCCCC2)=N3)CC1 [Example 156, N-(2-Cyclooctylamino-4H-benzo[d][1,3]oxazin-6-yl)-2-(4-methyl-piperazin-1-yl)-acetamide] | 2.16
c1cc(NC2=Nc3ccc(NCc4ncc[nH]4)cc3CO2)cc(C2CC2)c1 [Example 125, N^2-(3-Cyclopropyl-phenyl)-N^6-(1H-imdazol-2-ylmethyl)-4H-benzo[d][1,3]oxazine-2,6-diamine] | 37.2
Nc1ccc2c(c1)COC(NC1COc3cc(F)ccc31)=N2 (racemic) [Example 34, rac-N^2-(6-Fluoro-2,3-dihydro-benzofuran-3-yl)-4H-benzo[d][1,3]oxazine-2,6-diamine] | 4.26
COCC(=O)Nc1ccc2c(c1)COC(NC1COc3cccc(OC)c31)=N2 (racemic) [Example 17, rac-2-Methoxy-N-[2-(4-methoxy-2,3-dihydro-benzofuran-3-ylamino)-4H-benzo[d][1,3]oxazin-6-yl]-acetamide] | 26.1
COc1cccc2c1C(NC1=Nc3ccc(NS(=O)(=O)N4CCCCC4)cc3CO1)CO2 (racemic) [Example 50, rac-Piperidine-1-sulfonic acid [2-(4-methoxy-2,3-dihydro-benzofuran-3-ylamino)-4H-benzo[d][1,3]oxazin-6-yl]-amide] | 26.9
